# Test results from patent US20220296590A1, “STEREOISOMERS OF THE COMPOUND 3-(BENZO[D][1,3]DIOXOL-5-YL)-7-(1-HYDROXYPROPAN-2-YL)-1-(1H-INDOL-3-YL)-6,7-DIHYDRO-3H-OXAZOL[3,4-A]PYRAZINE-5,8-DIONE AND USE THEREOF AS AN ANTITUMOR AGENT AND PHOSPHODIESTERASE ENZYME INHIBITOR” (BIOLAB SANUS FARMACEUTICA LTDA, priority 2019, published 2022).
# Legend:
# [1] = tested on: LNCAP-human prostate cancer cells; assay: Antiproliferative effect in tumor cell culture (CYQuant intracellular DNA, 72 hours), LNCAP; assay type: cell-based; conditions: for % Cell Proliferation Inhibition (intracellular DNA) LNCAP (average ± E.P.M.): 72 hours
# Procedure: (§1) For the execution of the assay, the compounds are diluted in DMSO 100% (v/v) at a concentration of 1000 μM and subsequently diluted in a Sodium Chloride solution 0.9% to obtain the storage solutions of interest for use in the assays. The final concentration of interest will be directly diluted in the cell culture medium. For the assay there are used the following tumor cell lineages: PC3-human prostate cancer cells; LNCAP-human prostate cancer cells; DU145-human prostate cancer; MNK45-human gastric cancer and RT4-human bladder cancer cells. The tumor cell lineages are maintained in culture according to standard procedures established by the Cell Bank of Rio de Janeiro (lineage place of origin). For the assay, the tumor cells are seeded in the concentration of 10.000 cells per well (final volume of the reaction of […]), the plate is incubated for 8 hours, for the cells to adhere to the wall of the wells. After this period, the plate is divided in groups: • (a) test group: […] of the samples were added (test compound) in the concentrations of interest; • (b) positive control group: […] of culture medium were added (100% of cell proliferation); • (c) negative control group: 200 mL of culture medium and […] of the vehicle used were added to dilute the compounds (without cells—zero proliferation); • (d) control group: […] were added of the vehicle used to dilute the compounds. This group is important to evaluate whether the vehicle used interferes in the cell proliferation. OBSERVATION: the treatment with the concentrations of samples (test compounds) and of the controls are carried out in triplicate. Incubate the plate for 72 hours in a CO2 kiln at 37° C. After the incubation period, add […]/well of the solution with DNA marker from the CYQuant Kit and incubate the plate, for 60 minutes, in a CO2 incubator at 37° C. The fluorescence intensity is determined using a fluorescence microplate reader with 485 nm excitation and 530 nm emission detection. The results obtained were normalized relative to the positive control group (100% proliferation). For the compounds there are prepared the storage solutions in the concentrations of: 100 nM, 1 μM, 3 μM, 5 μM, 10 μM and 30 μM (DMSO 10% v/v). While the final concentrations in the test are of: 10 nM, 100 nM, 300 nM, 500 nM, 1000 nM and 3000 nM (in DMSO 1% v/v).
# [2] = tested on: DU145-human prostate cancer; assay: Antiproliferative effect in tumor cell culture (CYQuant intracellular DNA, 72 hours), DU145; assay type: cell-based; conditions: for % Cell Proliferation Inhibition (intracellular DNA) DU145 (average ± E.P.M.): 72 hours
# Procedure: as §1
# [3] = tested on: PC3-human prostate cancer cells; assay: Antiproliferative effect in tumor cell culture (CYQuant intracellular DNA, 72 hours), PC3; assay type: cell-based; conditions: for % Cell Proliferation Inhibition (intracellular DNA) PC-3 (average ± E.P.M.): 72 hours
# Procedure: as §1
# [4] = molecular target: T1, PDE5A1 enzyme (Homo sapiens, UniProt O76074); assay: In vitro inhibition of human phosphodiesterase enzyme 5 (BPS Bioscience PDE5A1 assay kit, fluorescence polarization); assay type: biochemical
# T1 construct: purchased BPS Bioscience 60350
# Procedure: The evaluation of the compound is studied using BPS Bioscience enzyme assay kit (catalogue 60350). The PDE5A1 Assay kit is designed for identification of PDE5A1 inhibitors using fluorescence polarization. The assay is based on the binding of a fluorescent nucleotide monophosphate generated by PDE5A1 enzyme to the binding agent.
# In this methodology only two simple steps on a microtiter plate are required for PDE5A1 reactions. First, the fluorescently labeled cGMP is incubated with PDE5A1 for 1 hour. Second, the binding agent is added to the reaction mixture to produce a change in fluorescent polarization that can then be measured using a fluorescence reader equipped for the measurement of fluorescence polarization.
# For the assay the storage reagent FAM-Cyclic-3′, 5′-GMP (20 μM) is diluted with PDE assay buffer to achieve the solution with a […] concentration; the PDE5A1 enzyme is thawed and diluted with the PDE buffer obtaining a PDE5A1 solution at 10 pg/mL.
# The assay compounds are diluted with DMSO 100% (v/v) at a concentration of 1000 μM and subsequently diluted in a Sodium chloride 0.9% solution to obtain a curve of concentrations of interest for the assay. The compounds are diluted in concentrations of: 10 nM, 30 nM, 50 nM, 100 nM, 300 nM, 500 nM, 1 μM, 3 μM, 5 μM (DMSO 10% v/v).
# The study is comprised of groups: (i) substrate control; (ii) positive control (KIT); (iii) samples in several concentrations; (iv) tadalafil (comparative control). Each parameter (group) is triple labeled.
# For the 4 groups there is added, to each microplate well, […] of the FAM-Cyclic-3′ reagent, 5′-GMP (200 μM).
# To the substrate control group there is added, to each well, […] of vehicle (DMSO 10% v/v) and […] PDE Buffer.
# To the positive control group there is added, to each well, […] of vehicle (DMSO 10% v/v).
# To the tadalafil group: there is added […] of the solution in the concentrations of interest.
# To the test group there is added […] of the sample solution (test compound)
# OBSERVATION: the parameters tested are in triplicate.
# To begin the reaction, add […] of the PDE5A1 enzyme (diluted as described above) to the microplate wells designated as Positive Control and Samples (test and tadalafil), and incubate the microplate, for 1 hour, at a temperature of 25° C.
# After the incubation period, the reaction is interrupted by the addition, in all the wells, of […] of the binding agent solution and the microplate is incubated for 30 minutes, under light stirring, at room temperature. The reading of the microplate is carried out in Polarized Fluorescence (475-495 nm—excitation and 518-538 nm—emission detection) 500 nanoseconds integration time.
# [5] = tested on: RT4-human bladder cancer cells; assay: Antiproliferative effect in tumor cell culture (CYQuant intracellular DNA, 72 hours), RT4; assay type: cell-based; conditions: for % Cell Proliferation Inhibition (intracellular DNA) RT4 (average ± E.P.M.): 72 hours
# Procedure: as §1
# [6] = tested on: MNK45-human gastric cancer; assay: Antiproliferative effect in tumor cell culture (CYQuant intracellular DNA, 72 hours), MNK45; assay type: cell-based
# Procedure: as §1
smiles,measurement,setting,value
"CC(CO)N1CC(=O)N2C(=C(c3c[nH]c4ccccc34)OC2c2ccc3c(c2)OCO3)C1=O (mixture of isomers) [BL-241, (R)-3-(benzo[d][1,3]dioxol-5-yl)-7-((S)-1-hydroxypropan-2-yl)-1-(1H-indole-3-yl)-6,7-dihydro-3H-oxazole[3,4-a]pyrazine-5,8-dione with (S)-3-(benzo[d][1,3]dioxol-5-yl)-7-((S)-1-hydroxypropan-2-yl)-1-(1H-indole-3-yl)-6,7-dihydro-3H -oxazole[3,4-a]pyrazine-5,8-dione]",% Cell Proliferation Inhibition (intracellular DNA) LNCAP (average ± E.P.M.),"[1]; 10 nM, 0.01 µM",25 ± 2%
same,% Cell Proliferation Inhibition (intracellular DNA) LNCAP (average ± E.P.M.),"[1]; 100 nM, 0.1 µM",37 ± 3%
same,% Cell Proliferation Inhibition (intracellular DNA) LNCAP (average ± E.P.M.),"[1]; 300 nM, 0.3 µM",38 ± 4%
same,% Cell Proliferation Inhibition (intracellular DNA) LNCAP (average ± E.P.M.),"[1]; 500 nM, 0.5 µM",44 ± 2%
same,% Cell Proliferation Inhibition (intracellular DNA) LNCAP (average ± E.P.M.),"[1]; 1000 nM, 1 µM",34 ± 6%
same,"antiproliferative effect, result in words",[1]; LNCAP prostate cancer tumor lineage,antiproliferative effect
same,% Cell Proliferation Inhibition (intracellular DNA) DU145 (average ± E.P.M.),"[2]; 100 nM, 0.1 µM",33 ± 8%
same,% Cell Proliferation Inhibition (intracellular DNA) DU145 (average ± E.P.M.),"[2]; 300 nM, 0.3 µM",17 ± 3%
same,% Cell Proliferation Inhibition (intracellular DNA) DU145 (average ± E.P.M.),"[2]; 500 nM, 0.5 µM",18 ± 2%
same,% Cell Proliferation Inhibition (intracellular DNA) DU145 (average ± E.P.M.),"[2]; 1000 nM, 1 µM",22 ± 2%
same,% Cell Proliferation Inhibition (intracellular DNA) DU145 (average ± E.P.M.),"[2]; 3000 nM, 3 µM",43 ± 5%
same,"antiproliferative effect, result in words",[2]; DU145 prostate cancer tumor lineage,antiproliferative effect
same,% Cell Proliferation Inhibition (intracellular DNA) PC-3 (average ± E.P.M.),"[3]; 10 nM, 0.01 µM",27 ± 11%
same,% Cell Proliferation Inhibition (intracellular DNA) PC-3 (average ± E.P.M.),"[3]; 100 nM, 0.1 µM",36 ± 7%
same,% Cell Proliferation Inhibition (intracellular DNA) PC-3 (average ± E.P.M.),"[3]; 300 nM, 0.3 µM",42 ± 6%
same,% Cell Proliferation Inhibition (intracellular DNA) PC-3 (average ± E.P.M.),"[3]; 500 nM, 0.5 µM",46 ± 1%
same,% Cell Proliferation Inhibition (intracellular DNA) PC-3 (average ± E.P.M.),"[3]; 1000 nM, 1 µM",33 ± 3%
same,"antiproliferative effect, result in words",[3]; PC3 prostate cancer tumor lineage,antiproliferative effect
same,% of Inhibition (PDE5A1),"[4]; 500 nM, 0.5 µM",57%
same,% of Inhibition (PDE5A1),"[4]; 1000 nM, 1 µM",71%
same,% of Inhibition (PDE5A1),"[4]; 3000 nM, 3 µM",88%
same,"PDE5 inhibition, result in words",[4]; over the concentrations tested,capable of inhibiting the PDE5 in a dose-dependent manner
same,% Cell Proliferation Inhibition (intracellular DNA) RT4 (average ± E.P.M.),"[5]; 100 nM, 0.1 µM",28 ± 6%
same,% Cell Proliferation Inhibition (intracellular DNA) RT4 (average ± E.P.M.),"[5]; 300 nM, 0.3 µM",5 ± 2%
same,% Cell Proliferation Inhibition (intracellular DNA) RT4 (average ± E.P.M.),"[5]; 500 nM, 0.5 µM",4 ± 2%
same,% Cell Proliferation Inhibition (intracellular DNA) RT4 (average ± E.P.M.),"[5]; 1000 nM, 1 µM",11 ± 8%
same,% Cell Proliferation Inhibition (intracellular DNA) RT4 (average ± E.P.M.),"[5]; 3000 nM, 3 µM",57 ± 4%
same,"antiproliferative effect, result in words",[5]; RT4 bladder cancer tumor lineage,antiproliferative effect
same,% Cell Proliferation Inhibition (intracellular DNA) MNK45 (average ± E.P.M.),"[6]; 100 nM, 0.1 µM",25 ± 1%
same,% Cell Proliferation Inhibition (intracellular DNA) MNK45 (average ± E.P.M.),"[6]; 300 nM, 0.3 µM",10 ± 2%
same,% Cell Proliferation Inhibition (intracellular DNA) MNK45 (average ± E.P.M.),"[6]; 500 nM, 0.5 µM",2 ± 1%
same,% Cell Proliferation Inhibition (intracellular DNA) MNK45 (average ± E.P.M.),"[6]; 1000 nM, 1 µM",4 ± 1%
same,% Cell Proliferation Inhibition (intracellular DNA) MNK45 (average ± E.P.M.),"[6]; 3000 nM, 3 µM",20 ± 3%
